Where a name gives a salt, the structure may show the parent alone.
Molecular target: Angiotensin II-Rezeptor
Test: Angiotensin II receptor binding (displacement of [125I]-Angiotensin II from rat lung homogenate)
Parameters: species or system Ratte
Conditions: Rattenlunge homogenate; 50 pM [125I]-Angiotensin II; 60 Min. at 37°C; IC50 from dose-response curve
Method: Methodenbeschreibung Angiotensin II-Rezeptorbindung
Das Gewebe (Rattenlunge) wird in Tris-Puffer (50 mMol Tris, 150 mMol NaCl, 5 mMol EDTA, pH 7.40) homogenisiert und zweimal je 20 Min. bei 20.000 x g zentrifugiert. Das endgültige Pellet wird in Inkubations-Puffer (50 mMol Tris, 5 mMol MgCl2, 0,2 % BSA, pH 7,40) 1:75, bezogen auf das Feuchtgewicht des Gewebes, resuspendiert. Je 0,1 ml Homogenat wird für 60 Min. bei 37°C mit 50 pM [125^I]-Angiotensin II (NEN, Dreieich, FRG) und steigenden Konzentrationen der Testsubstanz in einem Gesamtvolumen von 0,25 ml inkubiert. Die Inkubation wird durch rasche Filtration durch Glasfiber-Filtermatten beendet. Die Filter werden je 4 ml eiskaltem Puffer (25 mMol Tris, 2.5 mMol MgCl2, 0,1 % BSA, pH 7,40) gewaschen. Die gebundene Radioaktivität wird in einem Gamma-Counter ermittelt. Aus der Dosis-Wirkungskurve wird der entsprechende IC50-Wert ermittelt.

Row | SMILES | IC50 [nM]
1 | CCCc1nc2c(C)cc(-c3cn(CCCN(C)C)cn3)cc2n1Cc1ccc(-c2ccccc2C(=O)O)cc1 [Substanz G, 4'-[(2-n-Propyl-4-methyl-6-(1-(3-dimethylaminopropyl)-imidazol-4-yl)-benzimidazol-1-yl)-methyl]-biphenyl-2-carbonsäure-dihydrochlorid-pentahydrat] | 1.3
2 | CCCc1nc2c(C)cc(-c3cn(C)cn3)cc2n1Cc1ccc(-c2ccccc2C(=O)O)cc1 [Substanz A, 4'-[(2-n-Propyl-4-methyl-6-(1-methyl-imidazol-4-yl)-benzimidazol-1-yl)-methyl]-biphenyl-2-carbonsäure, reference compound] | 1.2
3 | CCCc1nc2c(C)cc(-c3cn(C4CCCCCC4)cn3)cc2n1Cc1ccc(-c2ccccc2C(=O)O)cc1 [Substanz E, 4'-[(2-n-Propyl-4-methyl-6-(1-cycloheptyl-imidazol-4-yl)-benzimidazol-1-yl)-methyl]-biphenyl-2-carbonsäure] | 15

Next, values leading:

Row | IC50 [nM] | SMILES
4 | 10 | CCOc1nc2ccc(-c3cn(C(C)C)cn3)cc2n1Cc1ccc(-c2ccccc2C(=O)O)cc1 [Substanz D, 4'-[(2-Ethoxy-6-(1-isopropyl-imidazol-4-yl)-benzimidazol-1-yl)-methyl]-biphenyl-2-carbonsäure]
5 | 40 | CCCc1nc2c(C)cc(-c3coc(C)n3)cc2n1Cc1ccc(-c2ccccc2C(=O)O)cc1 [Substanz C, 4'-[(2-n-Propyl-4-methyl-6-(2-methyl-oxazol-4-yl)-benzimidazol-1-yl)-methyl]-biphenyl-2-carbonsäure]
6 | 3.4 | CCCc1nc2c(C)cc(-c3cn(CC(N)=O)cn3)cc2n1Cc1ccc(-c2ccccc2C(=O)O)cc1 [Substanz F, 4'-[(2-n-Propyl-4-methyl-6-(1-aminocarbonylmethyl-imidazol-4-yl)-benzimidazol-1-yl)-methyl]-biphenyl-2-carbonsäure]

Source: patent EP0552765B1, “Benzimidazoles, pharmaceutical compositions containing them and process for their preparation” (Dr. Karl Thomae GmbH, priority 1992, dated 1993)
